Test [1] deals with cyclophilins. Description: Prolyl-isomerase inhibition screen on cyclophilins and cyclophilin mutants. The format is biochemical, human. Here is the method:
(§1) IC50 values were calculated to be the value at which 50% inhibition was achieved on each compound's non-linear regression fitted curve.

For test [2], the target named is T1, CypE (Homo sapiens, UniProt Q9UNP9).
T1 construct: PPIE (UniProtKB Entry Q9UNP9: res 131-301); host or cells: E. coli BL21(DE3)
Description: Chymotrypsin coupled prolyl-isomerase assay. The test is classed as biochemical. Particulars: for IC50: wild-type CypE, read-out: IC50^CypE. Here is the method:
as §1

For test [3], the target named is T1, CypE. Description: Competition anisotropy (fluorescence polarization) binding assay with A26-Fl. The conditions noted are these: for CypE binding in FP competition (in words): compared to C3A. Here is the method: Competition anisotropy binding assay with A26-Fl: Adapted from previous work^54, into a flat-bottom black untreated 96 well plate (Corning), cyclophilin in assay buffer (25 mM HEPES pH 8.0, 100 mM NaCl, 0.01% Triton X-100) at a predetermined concentration from FIG. 27 was incubated with 0.5 nM A26-Fl for 10 minutes at room temperature. Competitor macrocycle was then added to each well and incubated for 24 hours. Final assay volume was 100 μL with 0.25% DMSO. Fluorescence anisotropy was then measured using a Tecan Spark® plate reader using 492 nm/523 nm excitation/emission settings. Raw fluorescence polarization data was normalized to protein+fluorescent probe and buffer+fluorescent probe and Ki values were calculated using one site-competitive binding equation with Prism 9, importing Kd values from A26-Fl (FIGS. 12A-12C).

Test [4] deals with T2, CypD (Homo sapiens, UniProt P30405).
T2 construct: PPIF (UniProtKB Entry P30405: res 45-207); made in house; host or cells: E. coli BL21(DE3)
T2 sequence (P30405 45-207): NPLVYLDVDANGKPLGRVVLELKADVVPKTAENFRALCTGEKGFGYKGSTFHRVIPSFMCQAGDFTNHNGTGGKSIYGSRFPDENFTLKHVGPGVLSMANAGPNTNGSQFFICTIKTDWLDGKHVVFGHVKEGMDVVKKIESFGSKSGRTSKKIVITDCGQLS
Description: Chymotrypsin coupled prolyl-isomerase assay. The format is biochemical. Here is the method: as §1

The test system of test [5] is HeLa cells. Description: Fluorescence microscopy on HeLa cells. The format is cell-based, human. Particulars: Cy5 labeled compound 6 μM. How it is done:
Fluorescence microscopy on Hela cells. Into 96 well black, clear bottom TC treated plates, cells were seeded in Dulbecco's Modified Eagle Medium (DMEM) supplemented with 10% fetal bovine serum 24 hours prior at a density where wells were ˜80% confluent at time of experiment. Media was removed and cells were then stained with 50 μL of mixture containing Cy5 labeled compound (6 μM) in Kreb's ringer solution HEPES buffered pH 7.2 (KRB), for 1 hour at 37° C. Then, 50 μL Hoechst 33342 (8 μM) and Mitotracker Green FM (0.1 μM) in KRB was added directly to wells containing cells and incubated for 15 minutes at 37° C. Media was removed and cells were washed two times with 100 μL KRB. Cells were then kept adherent to the wells in 100 μL KRB for imaging. Fluorescence microscopy was conducted on an Opera Phenix Plus High-Content Screening System, using Alexa 488, Alexa 647, and Hoescht 33342 channels. Images were analyzed using Harmony 4.9.

Each structure is given as a SMILES string. “Also recorded” adds a separate entry of the source.

T1 sequence (Q9UNP9 131-301): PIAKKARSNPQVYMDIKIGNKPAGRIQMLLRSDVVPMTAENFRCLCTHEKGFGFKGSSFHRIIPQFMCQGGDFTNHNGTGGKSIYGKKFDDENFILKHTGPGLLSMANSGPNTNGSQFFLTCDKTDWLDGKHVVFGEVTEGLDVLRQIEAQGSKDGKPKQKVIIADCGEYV

With `NC(=O)[C@H]1CCNC(=O)/C=C/C(=O)N2CCC[C@](Cc3ccccc3)(C2)C(=O)N[C@H](Cc2ccc(-c3ccc(CC(C(=O)O)C(=O)O)cc3)cc2)C(=O)NCc2ccccc2CC(=O)N1` [*B52-A], the “inhibition of cyclophilins tested (in words)” value in test [1] was “no substantial inhibition activity; also recorded: did not inhibit any cyclophilin”.
Same read-out and setting: then `NC(=O)[C@H]1CCNC(=O)/C=C/C(=O)N2CCC[C@](Cc3ccccc3)(C2)C(=O)N[C@H](Cc2ccc(-c3ccc(C(CC(=O)O)CC(=O)O)cc3)cc2)C(=O)NCc2ccccc2CC(=O)N1` [*B53-A], with “no substantial inhibition activity; also recorded: did not inhibit any cyclophilin”.
`NCCOCCNC(=O)[C@@H]1CCNC(=O)/C=C/C(=O)N2CCC[C@](Cc3ccccc3)(C2)C(=O)N[C@@H](Cc2ccc(-c3ccccc3)cc2)C(=O)NCc2ccccc2CC(=O)N1` [Compound B2]: the “cyclophilin selectivity profile (in words)” value in test [1] is on record as “selectivity over cyclophilins with sterically occluded S2 pockets”.
The same measure, in the same setting: then `NCCOCCNC(=O)[C@@H]1CCNC(=O)/C=C/C(=O)N2CCC[C@](Cc3ccccc3)(C2)C(=O)N[C@@H](Cc2ccc(-c3ccc(CCC(=O)O)cc3)cc2)C(=O)NCc2ccccc2CC(=O)N1` [Compound B23], with “selectivity over non-lysine-containing PPIL1, Cyp40, CypC, and PPWD1”; and `NCCOCCNC(=O)[C@@H]1CCNC(=O)/C=C/C(=O)N2CCC[C@](Cc3ccccc3)(C2)C(=O)N[C@@H](Cc2ccc(-c3ccc(C#CC(=O)O)cc3)cc2)C(=O)NCc2ccccc2CC(=O)N1` [Compound B25], with “selectivity over non-lysine-containing PPIL1, Cyp40, CypC, and PPWD1”.
Regarding `N#CCc1ccc(-c2ccc(C[C@@H]3NC(=O)[C@]4(Cc5ccccc5)CCCN(C4)C(=O)/C=C/C(=O)NCC[C@@H](C(=O)NCCOCCN)NC(=O)Cc4ccccc4CNC3=O)cc2)cc1C(=O)O` [Compound B51], in test [1], the “cyclophilin selectivity profile (in words)” value is “hampers the selectivity” and the “inhibition of cyclophilins tested (in words)” value is reported as “loss of potency”.
`NC(=O)[C@@H]1CCNC(=O)/C=C/C(=O)N2CCC[C@](Cc3ccccc3)(C2)C(=O)N[C@@H](Cc2ccc(-c3ccc(CC(C(=O)O)C(=O)O)cc3)cc2)C(=O)NCc2ccccc2CC(=O)N1` [Compound B52-A]: in test [1], the “cyclophilin selectivity profile (in words)” value is “retain the same selectivity profile”.
On the same count and under the same terms, next, `NC(=O)[C@@H]1CCNC(=O)/C=C/C(=O)N2CCC[C@](Cc3ccccc3)(C2)C(=O)N[C@@H](Cc2ccc(-c3ccc(C(CC(=O)O)CC(=O)O)cc3)cc2)C(=O)NCc2ccccc2CC(=O)N1` [Compound B53-A]: “retain the same selectivity profile”.
On to `CC(=O)c1ccc(-c2ccc(C[C@@H]3NC(=O)[C@]4(Cc5ccccc5)CCCN(C4)C(=O)/C=C/C(=O)NCC[C@@H](C(N)=O)NC(=O)Cc4ccccc4CNC3=O)cc2)cc1B(O)O` [Compound C1A], for which, in test [2], the “CypE potency and selectivity in prolyl isomerase assay (in words)” value was “loss of potency and selectivity for CypE”; the IC50 is 0.9 µM. Moreover, the “CypE binding in FP competition (in words)” value (“CypE binding” below) in test [3] is on record as “attenuated binding to CypE; also recorded: decreased potency for CypE”.
`CC(=O)c1cc(-c2ccc(C[C@@H]3NC(=O)[C@]4(Cc5ccccc5)CCCN(C4)C(=O)/C=C/C(=O)NCC[C@@H](C(N)=O)NC(=O)Cc4ccccc4CNC3=O)cc2)ccc1B(O)O` [Compound C2A]: the “CypE binding” value in test [3] is on record as “attenuated binding to CypE; also recorded: decreased potency for CypE”.
With `NC(=O)[C@@H]1CCNC(=O)/C=C/C(=O)N2CCC[C@](Cc3ccccc3)(C2)C(=O)N[C@@H](Cc2ccc(-c3cccc(B(O)O)c3)cc2)C(=O)NCc2ccccc2CC(=O)N1` [Compound C6A], in test [2], the IC50 worked out at 4 µM. The “decrease in potency relative to C3A” value in test [3] (FP competition with A26-Fl against CypE) is recorded as 100 fold. For the same molecule, the “CypE binding” value in test [3] is recorded as “attenuated inhibition of CypE”.
For `CC(=O)NCCNC(=O)CCCCCN1\C(=C/C=C/C=C/C2=[N+](C)c3ccccc3C2(C)C)C(C)(C)c2ccccc21` [Cy5-enAc, reference compound], the “CypD prolyl-isomerase inhibition (in words)” value in test [4] is reported as “does not inhibit CypD”. In test [5], the “mitochondrial localization (overlap with Mitotracker Green)” value was “good mitochondrial localization”.

As a reminder, the IC50 is the concentration at which inhibition is half-maximal.

The values above are taken from patent US20250109165A1, “CYCLOPHILIN INHIBITORS AND USES THEREOF” (The Broad Institute, Inc., priority 2022, published 2025).
